Results reported in patent US20190374563A1, “TREATMENT OF KLEBSIELLA PNEUMONIAE INFECTIONS WITH ANTIBACTERIAL AMINOGLYCOSIDE COMPOUNDS” (Achaogen, Inc., priority 2009, published 2019).
Converted amounts (≈) assume the structure as drawn.

Key:
[1] = test system: E. coli ATCC 25922 (AECO001); test: MIC assay, CLSI broth microdilution; format: cell-based; details: Escherichia coli, ATCC25922, read-out: MIC AECO001
Procedure, shortened: (§1)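 Broth microdilution per CLSI M7-A7, with serial two-fold compound dilutions in Mueller Hinton Broth mixed 1:1 with inoculum. Colonies from a previous-day agar plate were suspended in saline to a final 5×10^5 CFU/mL. Plates were incubated 20 hours at 35° C. in ambient air.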

[2] = test system: P. aeruginosa ATCC 27853 (APAE001); test: MIC assay, CLSI broth microdilution; format: cell-based; details: Pseudomonas aeruginosa, ATCC27853, read-out: MIC APAE001
Procedure, shortened: as §1

CNCC(=O)N[C@@H]1CC=C(CN)O[C@@H]1O[C@H]1[C@H](O)[C@@H](O[C@H]2OC[C@](C)(O)[C@H](NC)[C@H]2O)[C@H](NC(=O)[C@@H](O)CCN)C[C@@H]1N [Example 86, 2′-(N-methyl-amino-acetyl)-1-(4-amino-2(S)-hydroxy-butyryl)-sisomicin]
MIC [1]: 1 to 16 µg/mL (≈ 1.61 to 25.8 µM) | MIC [2]: 1 to 16 µg/mL (≈ 1.61 to 25.8 µM)

CN[C@@H]1[C@@H](O)[C@@H](O[C@@H]2[C@@H](O)[C@H](O[C@H]3OC(CN)=CC[C@H]3NC(=O)CN)[C@@H](N)C[C@H]2NC(=O)[C@@H](O)CCN)OC[C@]1(C)O [Example 87, 2′-(2-Amino-acetyl)-1-(4-amino-2(S)-hydroxy-butyryl)-sisomicin]
MIC [1]: 1 to 16 µg/mL (≈ 1.65 to 26.4 µM) | MIC [2]: 1 to 16 µg/mL (≈ 1.65 to 26.4 µM)

CN[C@@H]1[C@@H](O)[C@@H](O[C@@H]2[C@@H](O)[C@H](O[C@H]3OC(CN)=CC[C@H]3NC(=O)C(C)N)[C@@H](N)C[C@H]2NC(=O)[C@@H](O)CCN)OC[C@]1(C)O (stereo partly drawn) [Example 88, 2′-(2-Amino-propionyl)-1-(4-amino-2(S)-hydroxy-butyryl)-sisomicin]
MIC [1]: 1 to 16 µg/mL (≈ 1.61 to 25.8 µM) | MIC [2]: 1 to 16 µg/mL (≈ 1.61 to 25.8 µM)

CN[C@@H]1[C@@H](O)[C@@H](O[C@@H]2[C@@H](O)[C@H](O[C@H]3OC(CN)=CC[C@H]3NC(=O)C(O)CN)[C@@H](N)C[C@H]2NC(=O)[C@@H](O)CCN)OC[C@]1(C)O (stereo partly drawn) [Example 89, 2′-(3-Amino-2-hydroxy-propionyl)-1-(4-amino-2(S)-hydroxy-butyryl)-sisomicin]
MIC [1]: < 1 µg/mL | MIC [2]: 1 to 16 µg/mL (≈ 1.57 to 25.2 µM)

CN[C@@H]1[C@@H](O)[C@@H](O[C@@H]2[C@@H](O)[C@H](O[C@H]3OC(CN)=CC[C@H]3NC(=O)C3CCCN3)[C@@H](N)C[C@H]2NC(=O)[C@@H](O)CCN)OC[C@]1(C)O (stereo partly drawn) [Example 90]
MIC [1]: < 1 µg/mL | MIC [2]: 1 to 16 µg/mL (≈ 1.55 to 24.8 µM)

CN[C@@H]1[C@@H](O)[C@@H](O[C@@H]2[C@@H](O)[C@H](O[C@H]3OC(CN)=CC[C@H]3NCCCN)[C@@H](N)C[C@H]2NC(=O)[C@@H](O)CCN)OC[C@]1(C)O [Example 91, 2′-(3-Amino-propyl)-1-(4-amino-2(S)-hydroxy-butyryl)-sisomicin]
MIC [1]: < 1 µg/mL | MIC [2]: < 1 µg/mL

CN[C@@H]1[C@@H](O)[C@@H](O[C@@H]2[C@@H](O)[C@H](O[C@H]3OC(CN)=CC[C@H]3NC(=O)CC3CNCCO3)[C@@H](N)C[C@H]2NC(=O)[C@@H](O)CCN)OC[C@]1(C)O (stereo partly drawn) [Example 92, 2′-(Morpholin-2-yl-acetyl)-1-(4-amino-2(S)-hydroxy-butyryl)-sisomicin]
MIC [1]: < 1 µg/mL | MIC [2]: > 16 µg/mL

CN[C@@H]1[C@@H](O)[C@@H](O[C@@H]2[C@@H](O)[C@H](O[C@H]3OC(CN)=CC[C@H]3NS(=O)(=O)CCN)[C@@H](N)C[C@H]2NC(=O)[C@@H](O)CCN)OC[C@]1(C)O [Example 93, 2′-(2-Amino-ethyl-sulfonamide)-1-(4-amino-2(S)-hydroxy-butyryl)-sisomicin]
MIC [1]: < 1 µg/mL | MIC [2]: 1 to 16 µg/mL (≈ 1.52 to 24.4 µM)

CN[C@@H]1[C@@H](O)[C@@H](O[C@@H]2[C@@H](O)[C@H](O[C@H]3OC(CN)=CC[C@H]3NCC(C)(C)CN(C)C)[C@@H](N)C[C@H]2NC(=O)[C@@H](O)CCN)OC[C@]1(C)O [Example 94, 2′-(N,N-Dimethyl-2,2-dimethyl-3-amino-propyl)-1-(4-amino-2(S)-hydroxy-butyryl)-sisomicin]
MIC [1]: 1 to 16 µg/mL (≈ 1.51 to 24.2 µM) | MIC [2]: > 16 µg/mL

CN[C@@H]1[C@@H](O)[C@@H](O[C@@H]2[C@@H](O)[C@H](O[C@H]3OC(CN)=CC[C@H]3NC[C@H](C)N)[C@@H](N)C[C@H]2NC(=O)[C@@H](O)CCN)OC[C@]1(C)O [Example 95, 2′-(2(S)-Amino-propyl)-1-(4-amino-2(S)-hydroxy-butyryl)-sisomicin]
MIC [1]: < 1 µg/mL | MIC [2]: > 16 µg/mL

CN[C@@H]1[C@@H](O)[C@@H](O[C@@H]2[C@@H](O)[C@H](O[C@H]3OC(CN)=CC[C@H]3NCC(N)CO)[C@@H](N)C[C@H]2NC(=O)[C@@H](O)CCN)OC[C@]1(C)O (stereo partly drawn) [Example 97, 2′-(2-Amino-propanol)-1-(4-amino-2(S)-hydroxy-butyryl)-sisomicin]
MIC [1]: < 1 µg/mL | MIC [2]: 1 to 16 µg/mL (≈ 1.61 to 25.7 µM)

CN[C@@H]1[C@@H](O)[C@@H](O[C@@H]2[C@@H](O)[C@H](O[C@H]3OC(CN)=CC[C@H]3NCCO)[C@@H](N)C[C@H]2NC(=O)[C@@H](O)CCN)OC[C@]1(C)O [Example 98, 2′-(2-Hydroxy-ethyl)-1-(4-amino-2(S)-hydroxy-butyryl)-sisomicin]
MIC [1]: 1 to 16 µg/mL (≈ 1.69 to 27 µM) | MIC [2]: 1 to 16 µg/mL (≈ 1.69 to 27 µM)

CN[C@@H]1[C@@H](O)[C@@H](O[C@@H]2[C@@H](O)[C@H](O[C@H]3OC(CN)=CC[C@H]3NC(=O)C(N)CCCN)[C@@H](N)C[C@H]2NC(=O)[C@@H](O)CCN)OC[C@]1(C)O (stereo partly drawn) [Example 99, 2′-(2,5-Diamino-pentoyl)-1-(4-amino-2(S)-hydroxy-butyryl)-sisomicin]
MIC [1]: 1 to 16 µg/mL (≈ 1.51 to 24.1 µM) | MIC [2]: 1 to 16 µg/mL (≈ 1.51 to 24.1 µM)

CN[C@@H]1[C@@H](O)[C@@H](O[C@@H]2[C@@H](O)[C@H](O[C@H]3OC(CN)=CC[C@H]3NCC(O)CO)[C@@H](N)C[C@H]2NC(=O)[C@@H](O)CCN)OC[C@]1(C)O (stereo partly drawn) [Example 100, 2′-(2-Hydroxy-propanol)-1-(4-amino-2(S)-hydroxy-butyryl)-sisomicin]
MIC [1]: 1 to 16 µg/mL (≈ 1.61 to 25.7 µM) | MIC [2]: > 16 µg/mL

CN[C@@H]1[C@@H](O)[C@@H](O[C@@H]2[C@@H](O)[C@H](O[C@H]3OC(CN)=CC[C@H]3NCC(O)CN)[C@@H](N)C[C@H]2NC(=O)[C@@H](O)CCN)OC[C@]1(C)O (stereo partly drawn) [Example 101, 2′-(2-Hydroxy-3-amino-propyl)-1-(4-amino-2(S)-hydroxy-butyryl)-sisomicin]
MIC [1]: < 1 µg/mL | MIC [2]: 1 to 16 µg/mL (≈ 1.61 to 25.7 µM)

CN[C@@H]1[C@@H](O)[C@@H](O[C@@H]2[C@@H](O)[C@H](O[C@H]3OC(CN)=CC[C@H]3NCCCCN)[C@@H](N)C[C@H]2NC(=O)[C@@H](O)CCN)OC[C@]1(C)O [Example 102, 2′-(4-Amino-butyl)-1-(4-amino-2(S)-hydroxy-butyryl)-sisomicin]
MIC [1]: < 1 µg/mL | MIC [2]: 1 to 16 µg/mL (≈ 1.61 to 25.8 µM)

CN[C@@H]1[C@@H](O)[C@@H](O[C@@H]2[C@@H](O)[C@H](O[C@H]3OC(CN)=CC[C@H]3NC[C@H]3C[C@H](N)C3)[C@@H](N)C[C@H]2NC(=O)[C@@H](O)CCN)OC[C@]1(C)O [Example 104, 2′-(Methyl-trans-3-amino-cyclobutyl)-1-(4-amino-2(S)-hydroxy-butyryl)-sisomicin]
MIC [1]: < 1 µg/mL | MIC [2]: 1 to 16 µg/mL (≈ 1.58 to 25.3 µM)

CN[C@@H]1[C@@H](O)[C@@H](O[C@@H]2[C@@H](O)[C@H](O[C@H]3OC(CNC(=N)N)=CC[C@H]3NC(=N)N)[C@@H](N)C[C@H]2N)OC[C@]1(C)O [Example 105, 6′,2′-bis-Guanidinium-sisomicin]
MIC [1]: > 16 µg/mL | MIC [2]: > 16 µg/mL

CN[C@@H]1[C@@H](O)[C@@H](O[C@@H]2[C@@H](O)[C@H](O[C@H]3OC(CNCCO)=CC[C@H]3NC(=N)N)[C@@H](N)C[C@H]2N)OC[C@]1(C)O [Example 106, 6′-(2-Hydroxy-ethyl)-2′-guanidinium-sisomicin]
MIC [1]: < 1 µg/mL | MIC [2]: 1 to 16 µg/mL (≈ 1.87 to 30 µM)

CN[C@@H]1[C@@H](O)[C@@H](O[C@@H]2[C@@H](O)[C@H](O[C@H]3OC(CNC[C@H]4C[C@H](N)C4)=CC[C@H]3NC(=N)N)[C@@H](N)C[C@H]2N)OC[C@]1(C)O [Example 107, 6′-(Methyl-trans-3-amino-cyclobutyl)-2′-guanidinium-sisomicin]
MIC [1]: 1 to 16 µg/mL (≈ 1.75 to 27.9 µM) | MIC [2]: < 1 µg/mL

CNCC1=CC[C@@H](NC(=N)N)[C@@H](O[C@H]2[C@H](O)[C@@H](O[C@H]3OC[C@](C)(O)[C@H](NC)[C@H]3O)[C@H](N)C[C@@H]2N)O1 [Example 108, 6′-Methyl-2′-guanidinium-sisomicin]
MIC [1]: < 1 µg/mL | MIC [2]: 1 to 16 µg/mL (≈ 1.99 to 31.8 µM)
